Experimental data reported in patent US8574546B2, “Substituted aryl-fluoroborates as imaging agents” (The University of British Columbia, priority 2007, dated 2013).

Columns and labels:
[1] = [18F] isotope exchange of [18/19F]-(3), dissociation rate of [18F]-fluoride from the trifluoroborate; type: physicochemical; details: 200 mM PO4, pH 7.5, 100 mM [19F]-NaF
Method: [^18F] Isotope Exchange—Using the Low-Activity Radiochemical Synthesis of [^18/19F]-(3).
In order to assay the dissociation rate of [^18F]-fluoride from the trifluoroborate (3), The six aliquots of Sample-A (each 10 μL, 1.5 nmol [^18/19F]-(3), 0.45 μCi (t=184 min)) were diluted 30 fold into 300 μL of a 200 mM PO4, pH 7.5, 100 mM [^19F]—NaF solution at different times. A volume of 0.5 μL of each dilution was spotted on a TLC plate which is run 2 inches in a 5:95 NH4OH:ethanol developing solution. Each spot that was deposited on the plate had spent increasing amounts of time in the solution containing a vast excess of [^19F]-fluoride. Following autoradiography, a rate constant for the isotopic exchange of [^18F]-fluoride from [^18/19F]-(3) was calculated.

[2] = Rate of defluorination (18F/19F isotopic exchange) of aryltrifluoroborates, TLC autoradiography; type: physicochemical; details: FIGS. 1-4, time points 0-180 minutes after labeling
Method: A solution of boronic acid/ester at approximately 200 mM in 3 μl DMF is made, and 3 μL of aqueous fluoride at 800 mM added, comprising ˜1 mCi of carrier free ^18F (˜0.6 pmol of ^18F) and carrier ^19F in the form of KHF2 in 800 mM HOAc at pH 3-4, in a total volume of 10 μl at 10 mM total, providing 100 nmol of total fluoride at a pH of 4.5. Following a one hour labeling reaction at room temperature, the extent of fluorination as well as the stability with regards to isotopic exchange is evaluated by thin layer chromotography TLC as described below.
1 μL of the fluorination mix is diluted 1:100 in 200 mM phosphate buffer pH 7.5, 100 mM K^19F and allowed to equilibrate. A “zero” time point is taken, consisting of 1 μL of the fluorination mix added to the above phosphate-KF solution, mixed and then 0.5 μL of this dilution is immediately spotted on a TLC plate. […] A separate dilution is made for each time point. Spots are dried on the plate briefly in ambient air. […]
Once completed, an aliquot (1.5 μL) from the fluorination reaction solution is the added to a volume of 300 μL of a chase solution containing 200 mM phosphate and 100 mM KF (pH 7.5). […] Autoradiograms are then generated and analyzed by a phosphoimager. The densities of the free fluoride spot and the ArBF3 spot are quantified. […]

| Compound | period in which 10% of the fluoride is solvolytically liberated [1] | retention of the fluorine radioisotope (18F) on TLC autoradiogram [2] |
| --- | --- | --- |
| O=C1N[C@H]2[C@H](CS[C@H]2CCCCC(=O)N2CCN(C(=O)c3c(F)cc(F)c([B-](F)(F)F)c3F)CC2)N1 [(3), (2-(1,3,5-trifluoro-4-(trifluoroboryl)benzoyl)piperazin-1-yl) biotin] | ≥ 833 min |  |
| O=C(O)c1cccc(B(O)O)c1 [Compound 12] |  | retain the fluorine radioisotope longer than compounds 10 or 19 |
| OB(O)c1cccc(F)c1F [Compound 22] |  | retain the fluorine radioisotope longer than compounds 10 or 19 |
